According to ChEMBL document CHEMBL1133932, “Synthesis and biological evaluation of L- and D-configurations of 2',3'-dideoxy-4'-C-methyl-3'-oxacytidine analogues” (Bioorg Med Chem Lett, 2001):

Columns and labels:
Assay type in all cases: functional, cell-based
[1] = test system: CCRF-CEM; assay: In vitro inhibition of CCRF-CEM lymphoblastic leukemia cell replication by the compound; details: Homo sapiens
[2] = test system: B16-F10; assay: In vitro inhibition of B16F10 melanoma cell replication by the compound; details: Mus musculus
[3] = test system: P388; assay: In vitro inhibition of P388 leukemia cell replication by the compound; details: Mus musculus
[4] = test system: L1210; assay: In vitro inhibition of L1210 leukemia cell replication by the compound; details: Mus musculus
[5] = test system: L1210; assay: In vitro inhibition of L1210 leukemia cell replication by the compound at; details: Mus musculus

CC1(CO)OC[C@@H](n2cc(F)c(N)nc2=O)O1 (some centres not stated)
IC50 [1]: > 100 µM | IC50 [2]: > 100 µM | IC50 [3]: > 100 µM | IC50 [4]: > 100 µM

CC1(CO)OCC(n2cc(F)c(N)nc2=O)O1 (configuration not stated)
IC50 [5]: > 100 µM | IC50 [1]: > 100 µM | IC50 [2]: > 100 µM | IC50 [3]: > 100 µM

C[C@]1(CO)OCC(n2ccc(N)nc2=O)O1 (some centres not stated)
IC50 [1]: > 100 µM | IC50 [2]: 100 µM | IC50 [3]: > 100 µM | IC50 [4]: > 100 µM

C[C@]1(CO)OCC(n2ccc(N)nc2=O)O1 (single isomer, unassigned)
IC50 [1]: 30 µM | IC50 [2]: 100 µM | IC50 [3]: 5 µM | IC50 [4]: 45 µM

C[C@]1(CO)OCC(n2cc(F)c(N)nc2=O)O1 (some centres not stated)
IC50 [1]: > 100 µM | IC50 [2]: > 100 µM | IC50 [3]: > 100 µM | IC50 [4]: > 100 µM

C[C@]1(CO)OCC(n2cc(F)c(N)nc2=O)O1 (single isomer, unassigned)
IC50 [1]: > 100 µM | IC50 [2]: > 100 µM | IC50 [3]: 50 µM | IC50 [4]: > 100 µM

CC1(CO)OC[C@@H](n2ccc(N)nc2=O)O1 (some centres not stated)
IC50 [1]: > 100 µM | IC50 [2]: > 100 µM | IC50 [3]: > 100 µM | IC50 [4]: > 100 µM

CC1(CO)OCC(n2ccc(N)nc2=O)O1 (configuration not stated)
IC50 [1]: 30 µM | IC50 [2]: 100 µM | IC50 [3]: 10 µM | IC50 [4]: 50 µM
